{"source": "PubChem BioAssay AID624303", "about": "(The Scripps Research Institute Molecular Screening Center, 2012)", "molecular_target": "Tyrosine-protein kinase ABL1 (Homo sapiens) (UniProt P00519)", "sequence (P00519 whole entry, looked up)": "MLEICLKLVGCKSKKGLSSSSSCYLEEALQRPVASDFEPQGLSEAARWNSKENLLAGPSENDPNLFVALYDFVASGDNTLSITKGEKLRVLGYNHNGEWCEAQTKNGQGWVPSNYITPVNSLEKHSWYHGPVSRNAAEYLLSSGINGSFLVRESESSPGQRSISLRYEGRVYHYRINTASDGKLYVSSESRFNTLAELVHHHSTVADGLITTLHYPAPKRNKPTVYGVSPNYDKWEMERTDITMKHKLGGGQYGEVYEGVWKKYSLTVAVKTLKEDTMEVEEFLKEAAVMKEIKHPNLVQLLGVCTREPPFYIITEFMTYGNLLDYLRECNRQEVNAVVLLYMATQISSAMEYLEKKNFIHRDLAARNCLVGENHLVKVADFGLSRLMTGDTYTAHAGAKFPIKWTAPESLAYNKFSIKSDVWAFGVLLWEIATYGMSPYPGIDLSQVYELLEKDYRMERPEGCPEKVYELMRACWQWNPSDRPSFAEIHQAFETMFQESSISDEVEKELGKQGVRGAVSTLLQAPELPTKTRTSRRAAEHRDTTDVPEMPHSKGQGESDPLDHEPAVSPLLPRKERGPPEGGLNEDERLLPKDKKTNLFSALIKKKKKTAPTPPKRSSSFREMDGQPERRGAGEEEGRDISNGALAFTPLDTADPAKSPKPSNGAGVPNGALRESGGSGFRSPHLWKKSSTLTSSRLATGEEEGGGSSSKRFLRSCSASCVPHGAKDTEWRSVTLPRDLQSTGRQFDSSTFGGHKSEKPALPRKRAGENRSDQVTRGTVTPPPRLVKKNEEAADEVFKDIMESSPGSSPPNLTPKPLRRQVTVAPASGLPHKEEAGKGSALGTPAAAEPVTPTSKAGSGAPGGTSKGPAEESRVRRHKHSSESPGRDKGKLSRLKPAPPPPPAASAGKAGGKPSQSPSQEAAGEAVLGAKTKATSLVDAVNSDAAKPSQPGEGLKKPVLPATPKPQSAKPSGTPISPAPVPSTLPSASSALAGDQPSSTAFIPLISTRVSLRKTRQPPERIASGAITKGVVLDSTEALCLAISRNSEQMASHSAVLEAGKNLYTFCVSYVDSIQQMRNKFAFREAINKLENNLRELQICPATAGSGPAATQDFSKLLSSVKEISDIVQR", "experiment": "ABL1 kinase inhibition, RIN1-independent, late-stage follow-up, RIN1-ABL interaction inhibitor project, biochemical, purified CRK substrate, chemiluminescent immunoblot, powders, round 1 (AID 624303)", "conditions": "purified ABL1 phosphorylating CRK, anti-pTyr chemiluminescence blot; at 10 µM; active compounds read high", "note": "Calls of active or inactive are those of the source.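 How the source made its calls: active means inhibition of at least 2%; inactive means inhibition below 2%.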", "data": [{"smiles": "O=C(Cc1ccc(NC(=O)C2CCN(C(=O)c3ccccc3)CC2)cc1)Nc1ccc(C(=O)N2CCOCC2)cc1", "values": [{"measurement": "inhibition", "value": "0% (inactive)"}]}, {"smiles": "O=c1cc(OCc2ccccc2)cc[nH]1", "values": [{"measurement": "inhibition", "value": "0% (inactive)"}]}, {"smiles": "COc1ccc(CCNc2cc(=O)[nH]c(N)n2)cc1", "values": [{"measurement": "inhibition", "value": "0% (inactive)"}]}, {"smiles": "Cn1c(=O)c2c(nc(-n3ccnc3)n2Cc2ccc(Cl)cc2Cl)n(C)c1=O", "values": [{"measurement": "inhibition", "value": "0% (inactive)"}]}, {"smiles": "COc1ccc2oc(C(=O)NCC(c3ccco3)N(C)C)c(C)c2c1", "note": "(configuration not stated)", "values": [{"measurement": "inhibition", "value": "0% (inactive)"}]}, {"smiles": "CN(CCc1ccccc1)C(=O)c1ccc(NC(=O)Cc2ccc(NC(=O)C3CCN(C(=O)C4CCCC4)CC3)cc2)cc1", "values": [{"measurement": "inhibition", "value": "0% (inactive)"}]}, {"smiles": "CN(Cc1c(F)cccc1Cl)C(=O)CNC(=O)c1ccc2c(c1)OCO2", "values": [{"measurement": "inhibition", "value": "0% (inactive)"}]}, {"smiles": "O=C(c1cc(COc2cccc3cccnc23)on1)N1CCC[C@H]1CO", "values": [{"measurement": "inhibition", "value": "0% (inactive)"}]}, {"smiles": "Cc1c(C(=O)NCC(c2ccco2)N(C)C)oc2c(Cl)cccc12", "note": "(configuration not stated)", "values": [{"measurement": "inhibition", "value": "0% (inactive)"}]}, {"smiles": "CN(C(=O)c1ccc(NC(=O)Cc2ccc(NC(=O)C3CCN(C(=O)c4ccc(F)cc4)CC3)cc2)cc1)C1CC1", "values": [{"measurement": "inhibition", "value": "0% (inactive)"}]}, {"smiles": "CC(=O)Nc1ccc(NC(=O)C2CCN(C(=O)c3cccs3)CC2)cc1", "values": [{"measurement": "inhibition", "value": "0% (inactive)"}]}, {"smiles": "CSc1ccccc1OCc1cc(C(=O)N2CCNC(=O)C2)no1", "values": [{"measurement": "inhibition", "value": "0% (inactive)"}]}, {"smiles": "O=C(Cc1ccc(NC(=O)C2CCN(C(=O)C3CCCC3)CC2)cc1)Nc1ccc(C(=O)N2CCOCC2)cc1", "values": [{"measurement": "inhibition", "value": "0% (inactive)"}]}, {"smiles": "COc1ccc(C(=O)N2CCC(C(=O)Nc3ccc(CC(=O)Nc4ccc(C(=O)N(C)C5CC5)cc4)cc3)CC2)cc1", "values": [{"measurement": "inhibition", "value": "0% (inactive)"}]}, {"smiles": "CN(CCc1ccccc1)C(=O)c1ccc(NC(=O)Cc2ccc(NC(=O)C3CCN(C(=O)c4ccccc4)CC3)cc2)cc1", "values": [{"measurement": "inhibition", "value": "0% (inactive)"}]}, {"smiles": "CCOC(=O)N1CCC(NC(=O)CCc2nc(C3=CCN(C)CC3)no2)CC1", "values": [{"measurement": "inhibition", "value": "0% (inactive)"}]}, {"smiles": "COc1cccc(CSc2nnc(CSc3nc4nc(C)cc(C)n4n3)s2)c1", "values": [{"measurement": "inhibition", "value": "0% (inactive)"}]}, {"smiles": "O=C(Cc1ccc(NC(=O)C2CCN(C(=O)C3CCCCC3)CC2)cc1)Nc1ccc(C(=O)N2CCOCC2)cc1", "values": [{"measurement": "inhibition", "value": "0% (inactive)"}]}, {"smiles": "CN(C(=O)c1ccc(NC(=O)Cc2ccc(NC(=O)C3CCN(C(=O)c4ccccc4)CC3)cc2)cc1)C1CC1", "values": [{"measurement": "inhibition", "value": "0% (inactive)"}]}, {"smiles": "CN(C(=O)c1ccc(NC(=O)Cc2ccc(NC(=O)C3CCN(C(=O)c4cccc(F)c4)CC3)cc2)cc1)C1CC1", "values": [{"measurement": "inhibition", "value": "0% (inactive)"}]}, {"smiles": "N#Cc1ccccc1Sc1ccccc1C(=O)NCC(c1ccco1)N1CCCC1", "note": "(configuration not stated)", "values": [{"measurement": "inhibition", "value": "0% (inactive)"}]}, {"smiles": "CCOC(=O)N1CCN(C(=O)Nc2ccc(NC(=O)N3CCN(C(=O)OCC)CC3)cc2)CC1", "values": [{"measurement": "inhibition", "value": "0% (inactive)"}]}]}
